From publication PMC6901109 (Bioorganic & medicinal chemistry letters, 2019)

Columns and labels:
[1] = HLM half-life; type: in vitro ADME; conditions: human, liver microsomes
[2] = tested on: HepG2; assay: HepG2 viability; type: cell-based; conditions: at a concentration of 3 μM
[3] = tested on: Cryptococcus spp.; assay: Antifungal activity against Cryptococcus spp.; type: cell-based
[4] = target: T1, PigW (Homo sapiens, UniProt Q7Z7B1); assay: PigW assay; type: biochemical
T1 sequence (Q7Z7B1 1-504): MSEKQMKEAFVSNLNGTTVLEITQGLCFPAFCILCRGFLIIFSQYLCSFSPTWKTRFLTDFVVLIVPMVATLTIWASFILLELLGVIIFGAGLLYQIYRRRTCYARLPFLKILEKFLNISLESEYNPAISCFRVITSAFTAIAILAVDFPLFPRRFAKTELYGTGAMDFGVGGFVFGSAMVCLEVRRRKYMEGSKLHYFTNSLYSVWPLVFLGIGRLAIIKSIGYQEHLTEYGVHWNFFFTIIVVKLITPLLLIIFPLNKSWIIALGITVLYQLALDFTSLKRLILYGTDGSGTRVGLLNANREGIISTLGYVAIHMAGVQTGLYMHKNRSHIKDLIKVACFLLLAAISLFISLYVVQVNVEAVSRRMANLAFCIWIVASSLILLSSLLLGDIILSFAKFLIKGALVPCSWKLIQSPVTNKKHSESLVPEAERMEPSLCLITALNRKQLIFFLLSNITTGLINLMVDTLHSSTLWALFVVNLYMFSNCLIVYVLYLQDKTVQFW

Compound: Nc1ncccc1-c1cc(Cc2ccc(Cc3ccco3)cc2)no1 [Compound 8d]
- half-life [1]: ~3 min

Compound: Nc1ncccc1-c1cc(Cc2ccc(Oc3ccccn3)cc2)no1 [Compound 12b]
- HepG2 cytotoxicity (in words) [2]: significant liability

Compound: Nc1ncccc1-c1cc(Cc2ccc(CNCc3ccn[nH]3)cc2)no1 [Compound 10b]
- antifungal activity (in words) [3]: inactive

Compound: Cc1occc1COc1ccc(Cc2cc(-c3cccnc3N)on2)cn1 [Compound 13k]
- fold weaker antifungal activity compared to the unsubstituted analog 13j ([3]; ortho-methyl group, vs 13j): about 100 fold

Compound: Cc1nccc(NCc2ccc(Cc3cc(-c4cccnc4N)on3)cc2)n1 [Compound 11b]
- antifungal activity (in words) [3]: inactive

Compound: Nc1ncccc1-c1cc(Cc2ccc(OCc3cccc(Cl)c3)nc2)no1 [Compound 13l]
- activity against the human homolog PigW (in words) [4]: significant activity
- half-life [1]: 68.2 min

Compound: Nc1ncccc1-c1cc(Cc2ccc(Cc3ccc(F)o3)cc2)no1 [Compound 8e]
- half-life [1]: 14 min
